# Laboratory results published in patent US8975252B2, “Morpholine derivative” (Shanghai Pharmaceuticals Holding Co., Ltd., priority 2007, dated 2015).
# Where a name gives a salt, the structure may show the parent alone. Read-outs that look alike come from different tables or passages of the source.
# Biological target: Recombinant human renin (Homo sapiens (Human), UniProt P00797)
# Test: Inhibitory activity against human renin (fluorogenic synthetic peptide substrate)
# Format: biochemical
# Protocol: Inhibitory Activity Against Human Renin
# A renin substrate of synthetic peptide (Nma-KHPFH LVIHK(Dnp)-NH2) and test compound were mixed, and fluorescence intensity was assayed using a fluorophotometer before starting an enzymatic reaction (exciting wavelength: 340 nm, measuring wavelength: 460 nm). Recombinant human renin was added and the mixture was incubated at 37° C. for an hour, and the fluorescence intensity was measured after the reaction using a fluorophotometer (exciting wavelength: 340 nm, measuring wavelength: 460 nm). Renin activity was evaluated on the ground of fluorescence intensity which was obtained by deduction of the intensity before the reaction from the intensity after the reaction, and 50% inhibitory concentration (IC50) was calculated from renin activities under the existence of various concentration of the tested compound.
# [1] = recombinant human renin, substrate Nma-KHPFH LVIHK(Dnp)-NH2, 37° C. for an hour, fluorescence, read-out: Inhibitory Activity against human Renin(IC50)
# Recombinant human renin, sequence (P00797 67-406): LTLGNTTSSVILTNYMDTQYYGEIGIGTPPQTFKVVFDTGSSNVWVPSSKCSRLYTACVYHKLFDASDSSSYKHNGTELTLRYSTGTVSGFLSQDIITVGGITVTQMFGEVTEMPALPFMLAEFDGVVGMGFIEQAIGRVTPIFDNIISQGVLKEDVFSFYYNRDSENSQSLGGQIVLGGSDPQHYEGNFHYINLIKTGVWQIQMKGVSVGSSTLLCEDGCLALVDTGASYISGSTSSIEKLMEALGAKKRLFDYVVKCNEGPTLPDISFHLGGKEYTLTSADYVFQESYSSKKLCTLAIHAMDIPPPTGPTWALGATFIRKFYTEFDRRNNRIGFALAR
"IC50 (assay for renin-inhibition, read-out: renin-inhibition IC50)",Structure (SMILES),IC50 [1]
< 1000 nM,COCCCOc1cc(CN(C(=O)[C@H]2CNCCO2)C2CC2)ccc1OC [(2R)—N-cyclopropyl-N-[4-methoxy-3-(3-methoxypropoxy)benzyl]morpholine-2-carboxamide hydrochloride],
,"COCCCOc1cc(CN(C(=O)[C@H]2CNCCO2)C2CC2)cc2ccccc12 [Example 4, (2R)—N-cyclopropyl-N-{[4-(3-methoxypropoxy)-2-naphthyl]methyl}morpholin-2-carboxamide hydrochloride]",30.2 nM
,COCCCn1cc(CN(C(=O)[C@H]2CNCCO2)C2CC2)c2ccccc21 [Example 39],13 nM
